Tests used:
DS male mice [1] = assay: Taming activity (inhibition of fighting responses); assay type: in vivo; conditions: given 60 minutes prior; inhibition of electroshock-induced fighting responses, 5 pairs of mice
Protocol: This test was measured on DS male mice. […] These pairs of mice were selected in the morning and used for drug test in the afternoon. The test compound was administered to both mice of the pairs 60 minutes prior to the experiment. Results were obtained as the mean percentage of inhibition of fighting responses in a group of 5 pairs and shown by ED50 [Tedeschi, et al.: J. Pharmacol Exp. Thev., 125, 28-34 (1959)].

DS male mice [2] = assay: Rotarod performance activity; assay type: in vivo; conditions: fall from rod (5 rotations per minute) within less than 2 minutes; 10 mice per dose
Protocol: (3) Rotarod performance activity
This test was measured on DS male mice. The mouse was put on a scraped rod of wood, 3 cm in diameter, turning at the rate of five rotations per minute. The mice that could remain on the rod for three or more minutes in successive trials were selected and placed in a group of 10 mice for each dose. If the mouse fell down from the rod within less than 2 minutes, the test compound was considered to be effective. Results were shown by ED50 [Dunham, et al.: J. Am. Pharm. Assoc., 46, 208 (1957)].

## CN(C(=O)CNC(=O)CN)c1ccc(Cl)cc1C(=O)c1ccccc1Cl.O [Compound No. 2, 2-o-chlorobenzoyl-4-chloro-N-methyl-N^α -glycyl-glycinanilide hydrate]
DS male mice [1]
  Taming activity ED50: 3.0 mg/kg

## CN(C(=O)CNC(=O)CN)c1ccc(Cl)cc1C(=O)c1ccccc1F.Cl [Compound No. 3, 2-o-fluorobenzoyl-4-chloro-N-methyl-N^α -glycyl-glycinanilide hydrochloride]
DS male mice [1]
  Taming activity ED50: 1.6 mg/kg
DS male mice [2]
  Rotarod performance ED50: 17.0 mg/kg
